One data set relates to rats. The experiment in a line: Bleeding time in rats, tail clipping (Example 4). In kind it is in vivo, rat. The procedure:
Grouping: Divided into 5 groups, with 10 animals in each group. […] The modeling started 30 min after the last dose. Detection index: the blood flow was open after 15 min, the thread was taken out, the residual liquid was sucked dry, the thread attached with thrombus was weighed and the wet weight of thrombus was calculated; the dry weight of thrombus was weighed and calculated after bake-drying in the oven at 50° C. Thrombosis inhibition rate was calculated. Tails were clipped at the end of the experiment to detect bleeding time.

Data set [1] relates to arteriovenous bypass thrombosis in rats. The experiment in a line: Arteriovenous bypass thrombosis in rats (Example 4). In kind it is in vivo, rat. The procedure: Grouping: Divided into 5 groups, with 10 animals in each group. The model control group was given with solvent, and the test drug compound (1) and the positive control were given intravenously once a day for consecutive 3 d. The modeling started 30 min after the last dose.
Model preparation: 50 SD male rats were anesthetized with sodium pentobarbital at a dose of 60 mg/kg via ip. The rat was fixed in the supine position, and the skin was incised at the midline of the neck; the fascia and muscle tissues were separated, the left common carotid artery and the right external jugular vein were dissociated, and the arterio-venous (A-V) bypass surgery was performed using the polyethylene tubing with a built-in thread. The arterial clip was used to clamp the proximal end of the carotid artery, and one end of the polyethylene tubing was inserted into the artery, and another end was inserted into the vein, thereby completing the bypass surgery. 30 minutes after the last dose, the arterial clip was opened, and blood flowed from the left common carotid artery to the right external jugular vein through the bypass tubing, and the blood flow formed a bypass circulation, and the thrombus was taken out 15 min later.
Detection index: the blood flow was open after 15 min, the thread was taken out, the residual liquid was sucked dry, the thread attached with thrombus was weighed and the wet weight of thrombus was calculated; the dry weight of thrombus was weighed and calculated after bake-drying in the oven at 50° C. Thrombosis inhibition rate was calculated. Tails were clipped at the end of the experiment to detect bleeding time.

The subject of data set [2] is rats with focal cerebral ischemia (MCAO)/reperfusion. Put plainly: Preventative administration, cerebral ischemia-reperfusion injury MCAO/R in rats (Example 5). Type of data set: in vivo, rat. The procedure: Experimental method: SD rats were randomly divided into six groups, i.e., pseudosurgery group, model control group, positive control drug ozagre (6 mg/kg) group, and administration drug compound (1) high-dose (67.5 mg/kg) group, medium-dose (22.5 mg/kg) group, and low-dose (7.5 mg/kg) group. The administration group was pre-administered via tail vein injection, while the pseudosurgery group and model control group were given equal volumes of physiological saline once a day for 3 consecutive days. 10 minutes after the last administration, a rat MCAO/R model was established and performed reperfusion 2 hours post ischemia. 24 hours after MCAO reperfusion, the neurobehavioral scores of rats were performed to determine their neurological function; the cerebral infarction rate and cerebral water content in rats were determined using 2,3,5-triphenyltetrazolium chloride (TTC) staining method.

The subject of data set [3] is vascular endothelial-injury thrombosis model in zebrafish. Put plainly: Preventative effect of compound (1) on vascular endothelial injury induced thrombosis in zebrafish (Example 3). In kind it is in vivo. Particulars: 30 μg/mL in water. The procedure: Experimental method: Wild-type AB strain zebrafish were treated with 4 μg/mL punatinib for 18 h to establish vascular endothelial-injury thrombosis model in zebrafish. 150 of 5 dpf wild-type AB strain zebrafish were randomly selected and placed in six-well plates with 30 fish per well (experimental group). The zebrafish were injected with compound (1) at a dose of 2.06 ng/tail, and 6.18 ng/tail, and the positive control drug acetylsalicylic acid was given by dissolving it in water with a concentration of 30 µg/mL, while the normal control group (i.e., zebrafish treated with standard dilution water) and the model control group were set up, and the volume of each well (experimental group) was 3 mL. Except for normal control group, the remaining experimental groups were all given Punatinib by dissolving it in water to induce vascular endothelial injury thrombosis model in zebrafish. The zebrafish were co-treated with compound (1) and punatinib for a period of time under incubation condition at 28° C., and then stained with o-dianisidine. After staining, 10 zebrafish were randomly selected from each group and photographed under the microscope. The intensity of cardiac erythrocyte staining in zebrafish was analyzed using NIS-Elements D 3.10 advanced image-processing software, and the preventative effect of compound (I) on vascular endothelial injury thrombosis was evaluated based on the statistical results of cardiac erythrocyte staining intensity. The preventative effect on thrombosis is calculated as follows: […]
Statistical analysis were performed using Analysis of Variance and Dunnett's t-test, and p<0.05 indicates a significant difference, providing a representative experimental plot.

In data set [4] the test system is vascular endothelial injury induced thrombosis model in zebrafish. Put plainly: Preventative effect on vascular endothelial injury induced thrombosis, ponatinib zebrafish model (Example 1). In kind it is in vivo. Particulars: 30.0 μg/mL dissolved in water.
Setting [5] is: 16 mg/kg i.v. once a day 3 d, in g (unit assumed).

Take `O=C(O)/C=C/c1ccc(Cn2ccnc2)cc1` [Ozagre, ozagrel, reference compound]: the “Bleeding time” value in the data set with rats (16 mg/kg i.v.) worked out at 740.8 ± 224 s. In addition, in the data set with rats (intravenous, compared with model control group), the “Effect on the bleeding time in rats, in words” value was “significantly prolonged”. For the same compound, in data set [1] (16 mg/kg i.v.), the “Dry weight inhibition rate (%)” value is listed as 34.1% and the “Wet weight inhibition rate (%)” value is given as 34%. For the same compound, in data set [1] (setting [5]), the “Dry weight of thrombus” value worked out at 0.0054 ± 0.0018 and the “Wet weight of thrombus” value was determined as 0.0208 ± 0.0041. Moreover, in data set [2] (6 mg/kg tail vein, once a day 3 days before MCAO/R, 24 h after reperfusion, mean ± SD, n = 8), the “Cerebral infarction rate (%)” value is given as 14.39 ± 8.14 %. This compound also gave a Behavioral score in data set [2] (6 mg/kg, preventative) of 1.50 ± 0.56. Besides, in data set [2] (6 mg/kg, preventative, tail vein 3 days), the “Cerebral water content (%)” value is given as 78.42 ± 3.73 %.

`CC(=O)Oc1ccccc1C(=O)O` [Acetylsalicylic acid, acetylsalicylic acid, reference compound]: the “Thromboprophylactic effect (%)” value in data set [3] was determined as 85%. Besides, the “Cardiac erythrocyte staining intensity (pixels, mean ± SE)” value in data set [3] (n = 10) worked out at 4655 ± 136 pixels; in data set [4] (n = 10), 5345 ± 228 pixels. The “Preventative effect on thrombosis (%)” value in data set [4] was found to be 101%.

The record behind these values is US20250064886A1, “CARDIOVASCULAR AND CEREBROVASCULAR DRUG AND USE THEREOF” (HANGZHOU ADAMERCK PHARMLABS INC., priority 2021, published 2025).
